Measured values: patent publication US12018267B2, “Plants having increased tolerance to herbicides” (BASF SE, priority 2015, dated 2024)

Legend:
[1] = test system: O. sativa Volano-M3-CESA1 and CESA3 mutants; experiment: Greenhouse foliar application, crop injury on tilled Rice M3 generation cellulose synthase mutants (Table E10-1); type: in vivo, Oryza sativa; conditions: foliar application 250 g ai/ha
Excerpt: Oryza sativa M2 Volano is a cellulose biosynthesis inhibitor susceptible rice risotto population that was subjected to sodium azide seed mutagenesis but was not tilled nor selected for CESA mutations. O. sativa Volano-M3-CESA1 and CESA3 mutants were selected from a subpopulation of O. sativa M2 Volano by sequencing CESA gene sequences in M2 plants and maintaining (producing seed through selfing) those individuals containing key mutations in these genes. The tolerance of the M3 CESA1 and CESA3 mutants was assessed using 6-(1-fluorocyclopentyl)-N2-(2,3,5,6-tetrafluorophenyl)-1,3,5-triazine-2,4-diamine, together with 1.0% DASH® EC adjuvant (BASF). The tolerance of M4 CESA1 and CESA3 mutants was assessed using 6-cyclopentyl-N4-(2,3,4,5,6-pentafluorophenyl)-1,3,5-triazine-2,4-diamine, together with 1.0% DASH® EC adjuvant (BASF).
M3 seed, which were harvested from tilled and selected individuals containing mutations in the CESA1 and CESA3 genes, were grown in the greenhouse under natural light conditions supplemented with 400 W sodium halide lamps under a 16 hr day length. Day/night temperatures were 26 and 20° C., respectively. The number of M3 plants from each line varied between 2 and 16, depending on seed availability and germination. A non-selective CBI, azine 6-(1-fluorocyclopentyl)-N2-(2,3,5,6-tetrafluorophenyl)-1,3,5-triazine-2,4-diamine, formulated with 1.0% DASH in a water volume of 375 L/ha was applied early post-emergent (one to two leaf stage) at a rate of 250 g ai/ha to M3 CESA1 and CESA3 mutant rice plants growing in soil in the greenhouse. Only plants originating from lines having more than four seeds were subjected to herbicide treatment. CESA mutant lines with four or fewer seeds were selfed for an additional generation and then tested at the M4 generation with 6-cyclopentyl-N4-(2,3,4,5,6-pentafluorophenyl)-1,3,5-triazine-2,4-diamine. M4 plants were grown under similar conditions as M3 plants and treated with 250 g ai/ha or 500 g ai/ha of 6-cyclopentyl-N4-(2,3,4,5,6-pentafluorophenyl)-1,3,5-triazine-2,4-diamine. […] Plants without any symptoms were recorded as “0%” injury. Increasing levels of reduced leaf mass and reduced stalk stiffness, with respect to the untreated control plants, were recorded in the range of “1 to 49%” injury. Increasing levels of leaf abnormalities and leaf necrosis, along with increased levels of lodging, relative to the untreated control plants, were recorded in the range of “50 to 85%” injury. Dead or dying plants with necrosis of the apex and severe lodging were recorded between “86-100%”. Data on individual plants was assessed and recorded due to the low number of individuals per line and the fact that the CESA mutations in the M2 generation were heterozygous and therefore segregating at the M3 and M4 generations. […]

[2] = test system: transgenic Arabidopsis plants with wildtype or mutated cellulose synthase sequences (SEQ ID NO: 1 or 3); experiment: 48-well plate growth inhibition of transgenic T2 Arabidopsis, relative tolerance rates versus non-transgenic (Table E2-1); type: in vivo, Arabidopsis thaliana; conditions: growth inhibition evaluated seven to ten days after seeding
Excerpt: For transformation of Arabidopsis thaliana, wildtype or mutated cellulose synthase sequences encoding for one of the following protein sequences SEQ ID NO: 1 or 3, are cloned with standard cloning techniques as described in Sambrook et al. (Molecular cloning (2001) Cold Spring Harbor Laboratory Press) in a binary vector containing resistance marker gene cassette (AHAS) and mutated cellulose synthase sequence (marked as GOI) in between ubiquitin promoter (PcUbi) and nopaline synthase terminator (NOS) sequence. Binary plasmids are introduced to Agrobacterium tumefaciens for plant transformation. Arabidopsis thaliana are transformed with wildtype or mutated cellulose synthase sequences by floral dip method as described by McElver and Singh (WO 2008/124495). Transgenic Arabidopsis plants are subjected to TaqMan analysis for analysis of the number of integration loci.
Transgenic Arabidopsis thaliana plants (T2) are assayed for improved tolerance to azine herbicides like e. g. 6-cyclopentyl-N4-(2,3,4,5,6-pentafluorophenyl)-1,3,5-triazine-2,4-diamine in 48-well plates. Therefore, T2 seeds are surface sterilized by stirring for 5 min in ethanol+water (70+30 by volume), rinsing one time with ethanol+water (70+30 by volume) and two times with sterile, deionized water. The seeds are resuspended in 0.1% agar dissolved in water (w/v) Four to five seeds per well are plated on solid nutrient medium consisting of half-strength murashige skoog nutrient solution, pH 5.8 (Murashige and Skoog (1962) Physiologia Plantarum 15: 473-497). Compounds are dissolved in dimethylsulfoxid (DMSO) and added to the medium prior solidification (final DMSO concentration 0.1%). Multi well plates are incubated in a growth chamber at 22° C., 75% relative humidity and 110 μmol Phot*m^−2*s^−1 with 14:10 h light:dark photoperiod. Growth inhibition is evaluated seven to ten days after seeding in comparison to wild type plants. Tolerance factors are calculated based on IC50 values of growth inhibition of transformed versus non-transformed Arabidopsis plants.

Structure (SMILES) | Crop Injury Assessment (%) at 20 DAT ([1]; Rice M3 OsCESA1 A1066T (SEQ ID 51), parental plant Het) [%] | Crop Injury Assessment (%) at 20 DAT ([1]; Rice M3 OsCESA1 S827N (SEQ ID 51), parental plant Het) [%] | Crop Injury Assessment (%) at 20 DAT ([1]; Rice M3 OsCESA1 V9231 (SEQ ID 51), parental plant Het) [%] | Crop Injury Assessment (%) at 20 DAT ([1]; Rice M3 OsCESA3 V1022L (SEQ ID 55), parental plant Hom) [%] | Relative tolerance rate of transgenic Arabidopsis plants as compared to non-transgenic (non-transgenic = 1.0) ([2]; Construct AtCesA1_G1031R, SEQ ID 1, variant G1031R) | Relative tolerance rate of transgenic Arabidopsis plants as compared to non-transgenic (non-transgenic = 1.0) ([2]; Construct AtCesA1_L1011A, SEQ ID 1, variant L1011A) | Relative tolerance rate of transgenic Arabidopsis plants as compared to non-transgenic (non-transgenic = 1.0) ([2]; Construct AtCesA1_R292H, SEQ ID 1, variant R292H) | Relative tolerance rate of transgenic Arabidopsis plants as compared to non-transgenic (non-transgenic = 1.0) ([2]; Construct AtCesA1_V297M, SEQ ID 1, variant V297M) | Relative tolerance rate of transgenic Arabidopsis plants as compared to non-transgenic (non-transgenic = 1.0) ([2]; Construct AtCesA1_wt, SEQ ID 1, no variant) | Relative tolerance rate of transgenic Arabidopsis plants as compared to non-transgenic (non-transgenic = 1.0) ([2]; Construct AtCesA3_F1039L, SEQ ID 3, variant F1039L) | Relative tolerance rate of transgenic Arabidopsis plants as compared to non-transgenic (non-transgenic = 1.0) ([2]; Construct AtCesA3_wt, SEQ ID 3, no variant)
Nc1nc(Nc2c(F)c(F)cc(F)c2F)nc(C2(F)CCCC2)n1 [6-(1-fluorocyclopentyl)-N2-(2,3,5,6-tetrafluorophenyl)-1,3,5-triazine-2,4-diamine] | 10 | 0 | 0 | 20 | – | – | – | – | – | – | –
Nc1nc(Nc2c(F)c(F)c(F)c(F)c2F)nc(C2CCCC2)n1 [6-cyclopentyl-N4-(2,3,4,5,6-pentafluorophenyl)-1,3,5-triazine-2,4-diamine] | – | – | – | – | 7 | 3 | 3 | 1 | 1 | 3 | 1
